# Data reported in ChEMBL document CHEMBL5131391, “One-pot three-component synthesis of novel pyrazolo[3,4-b]pyridines as potent antileukemic agents” (Eur J Med Chem, 2022).
# Test system: K562
# Test: Antiproliferative activity against human K562 cells assessed as reduction in cell viability incubated for 72 hrs by resazurin dye based assay
# Type: functional
# Conditions: K562, 72 h
row,Structure (SMILES),IC50 [µM]
1,Cc1ccc(-c2nc3c(c(-c4ccccc4)nn3-c3ccccc3)c(-c3ccc(O)cc3)c2C#N)cc1,8.8

# Test system: RPMI-8226
# Test: Antiproliferative activity against human RPMI-8226 cells assessed as growth inhibition at 10 uM measured after 48 hrs by NCI protocol based SRB assay relative to control
# Type: functional
# Conditions: read-out: GI
row,Structure (SMILES),inhibition of growth at 10 µM [%]
1,Cc1ccc(-c2nc3c(c(-c4ccccc4)nn3-c3ccccc3)c(-c3ccc(O)cc3)c2C#N)cc1,79

# Test system: MOLT-4
# Test: Antiproliferative activity against human MOLT-4 cells assessed as growth inhibition at 10 uM measured after 48 hrs by NCI protocol based SRB assay relative to control
# Type: functional
# Conditions: read-out: GI
row,Structure (SMILES),inhibition of growth at 10 µM [%]
1,Cc1ccc(-c2nc3c(c(-c4ccccc4)nn3-c3ccccc3)c(-c3ccc(O)cc3)c2C#N)cc1,60

# Test system: HL-60(TB)
# Test: Antiproliferative activity against human HL-60(TB) cells assessed as growth inhibition at 10 uM measured after 48 hrs by NCI protocol based SRB assay relative to control
# Type: functional
# Conditions: read-out: GI
row,Structure (SMILES),inhibition of growth at 10 µM [%]
1,Cc1ccc(-c2nc3c(c(-c4ccccc4)nn3-c3ccccc3)c(-c3ccc(O)cc3)c2C#N)cc1,68

# Test system: K562
# Test: Antiproliferative activity against human K562 cells assessed as growth inhibition at 10 uM measured after 48 hrs by NCI protocol based SRB assay relative to control
# Type: functional
# Conditions: read-out: GI
row,Structure (SMILES),inhibition of growth at 10 µM [%]
1,Cc1ccc(-c2nc3c(c(-c4ccccc4)nn3-c3ccccc3)c(-c3ccc(O)cc3)c2C#N)cc1,78

# Test system: HOP-92
# Test: Antiproliferative activity against human HOP-92 cells assessed as growth inhibition at 10 uM measured after 48 hrs by NCI protocol based SRB assay relative to control
# Type: functional
# Conditions: read-out: GI
row,Structure (SMILES),inhibition of growth at 10 µM [%]
1,Cc1ccc(-c2nc3c(c(-c4ccccc4)nn3-c3ccccc3)c(-c3ccc(O)cc3)c2C#N)cc1,26

# Test system: A549
# Test: Antiproliferative activity against human A549 cells assessed as growth inhibition at 10 uM measured after 48 hrs by NCI protocol based SRB assay relative to control
# Type: functional
# Conditions: read-out: GI
row,Structure (SMILES),inhibition of growth at 10 µM [%]
1,Cc1ccc(-c2nc3c(c(-c4ccccc4)nn3-c3ccccc3)c(-c3ccc(O)cc3)c2C#N)cc1,48

# Test system: EKVX
# Test: Antiproliferative activity against human EKVX cells assessed as growth inhibition at 10 uM measured after 48 hrs by NCI protocol based SRB assay relative to control
# Type: functional
# Conditions: read-out: GI
row,Structure (SMILES),inhibition of growth at 10 µM [%]
1,Cc1ccc(-c2nc3c(c(-c4ccccc4)nn3-c3ccccc3)c(-c3ccc(O)cc3)c2C#N)cc1,26

# Test system: NCI-H460
# Test: Antiproliferative activity against human NCI-H460 cells assessed as growth inhibition at 10 uM measured after 48 hrs by NCI protocol based SRB assay relative to control
# Type: functional
# Conditions: read-out: GI
row,Structure (SMILES),inhibition of growth at 10 µM [%]
1,Cc1ccc(-c2nc3c(c(-c4ccccc4)nn3-c3ccccc3)c(-c3ccc(O)cc3)c2C#N)cc1,73

# Test system: NCI-H522
# Test: Antiproliferative activity against human NCI-H522 cells assessed as growth inhibition at 10 uM measured after 48 hrs by NCI protocol based SRB assay relative to control
# Type: functional
# Conditions: read-out: GI
row,Structure (SMILES),inhibition of growth at 10 µM [%]
1,Cc1ccc(-c2nc3c(c(-c4ccccc4)nn3-c3ccccc3)c(-c3ccc(O)cc3)c2C#N)cc1,31

# Test system: NCI-H322M
# Test: Antiproliferative activity against human NCI-H322M cells assessed as growth inhibition at 10 uM measured after 48 hrs by NCI protocol based SRB assay relative to control
# Type: functional
# Conditions: read-out: GI
row,Structure (SMILES),inhibition of growth at 10 µM [%]
1,Cc1ccc(-c2nc3c(c(-c4ccccc4)nn3-c3ccccc3)c(-c3ccc(O)cc3)c2C#N)cc1,12

# Test system: NCI-H23
# Test: Antiproliferative activity against human NCI-H23 cells assessed as growth inhibition at 10 uM measured after 48 hrs by NCI protocol based SRB assay relative to control
# Type: functional
# Conditions: read-out: GI
row,Structure (SMILES),inhibition of growth at 10 µM [%]
1,Cc1ccc(-c2nc3c(c(-c4ccccc4)nn3-c3ccccc3)c(-c3ccc(O)cc3)c2C#N)cc1,33

# Test system: HCT-15
# Test: Antiproliferative activity against human HCT-15 cells assessed as growth inhibition at 10 uM measured after 48 hrs by NCI protocol based SRB assay relative to control
# Type: functional
# Conditions: read-out: GI
row,Structure (SMILES),inhibition of growth at 10 µM [%]
1,Cc1ccc(-c2nc3c(c(-c4ccccc4)nn3-c3ccccc3)c(-c3ccc(O)cc3)c2C#N)cc1,72

# Test system: SW-620
# Test: Antiproliferative activity against human SW-620 cells assessed as growth inhibition at 10 uM measured after 48 hrs by NCI protocol based SRB assay relative to control
# Type: functional
# Conditions: read-out: GI
row,Structure (SMILES),inhibition of growth at 10 µM [%]
1,Cc1ccc(-c2nc3c(c(-c4ccccc4)nn3-c3ccccc3)c(-c3ccc(O)cc3)c2C#N)cc1,38

# Test system: SF-268
# Test: Antiproliferative activity against human SF-268 cells assessed as growth inhibition at 10 uM measured after 48 hrs by NCI protocol based SRB assay relative to control
# Type: functional
# Conditions: read-out: GI
row,Structure (SMILES),inhibition of growth at 10 µM [%]
1,Cc1ccc(-c2nc3c(c(-c4ccccc4)nn3-c3ccccc3)c(-c3ccc(O)cc3)c2C#N)cc1,40

# Test system: SNB-75
# Test: Antiproliferative activity against human SNB-75 cells assessed as growth inhibition at 10 uM measured after 48 hrs by NCI protocol based SRB assay relative to control
# Type: functional
# Conditions: read-out: GI
row,Structure (SMILES),inhibition of growth at 10 µM [%]
1,Cc1ccc(-c2nc3c(c(-c4ccccc4)nn3-c3ccccc3)c(-c3ccc(O)cc3)c2C#N)cc1,60

# Test system: SNB-19
# Test: Antiproliferative activity against human SNB-19 cells assessed as growth inhibition at 10 uM measured after 48 hrs by NCI protocol based SRB assay relative to control
# Type: functional
# Conditions: read-out: GI
row,Structure (SMILES),inhibition of growth at 10 µM [%]
1,Cc1ccc(-c2nc3c(c(-c4ccccc4)nn3-c3ccccc3)c(-c3ccc(O)cc3)c2C#N)cc1,31

# Test system: U-251
# Test: Antiproliferative activity against human U-251 cells assessed as growth inhibition at 10 uM measured after 48 hrs by NCI protocol based SRB assay relative to control
# Type: functional
# Conditions: read-out: GI
row,Structure (SMILES),inhibition of growth at 10 µM [%]
1,Cc1ccc(-c2nc3c(c(-c4ccccc4)nn3-c3ccccc3)c(-c3ccc(O)cc3)c2C#N)cc1,59

# Test system: M14
# Test: Antiproliferative activity against human M14 cells assessed as growth inhibition at 10 uM measured after 48 hrs by NCI protocol based SRB assay relative to control
# Type: functional
# Conditions: read-out: GI
row,Structure (SMILES),inhibition of growth at 10 µM [%]
1,Cc1ccc(-c2nc3c(c(-c4ccccc4)nn3-c3ccccc3)c(-c3ccc(O)cc3)c2C#N)cc1,40

# Test system: SK-MEL-5
# Test: Antiproliferative activity against human SK-MEL-5 cells assessed as growth inhibition at 10 uM measured after 48 hrs by NCI protocol based SRB assay relative to control
# Type: functional
# Conditions: read-out: GI
row,Structure (SMILES),inhibition of growth at 10 µM [%]
1,Cc1ccc(-c2nc3c(c(-c4ccccc4)nn3-c3ccccc3)c(-c3ccc(O)cc3)c2C#N)cc1,23

# Test system: SK-MEL-28
# Test: Antiproliferative activity against human SK-MEL-28 cells assessed as growth inhibition at 10 uM measured after 48 hrs by NCI protocol based SRB assay relative to control
# Type: functional
# Conditions: read-out: GI
row,Structure (SMILES),inhibition of growth at 10 µM [%]
1,Cc1ccc(-c2nc3c(c(-c4ccccc4)nn3-c3ccccc3)c(-c3ccc(O)cc3)c2C#N)cc1,33

# Test system: UACC-62
# Test: Antiproliferative activity against human UACC-62 cells assessed as growth inhibition at 10 uM measured after 48 hrs by NCI protocol based SRB assay relative to control
# Type: functional
# Conditions: read-out: GI
row,Structure (SMILES),inhibition of growth at 10 µM [%]
1,Cc1ccc(-c2nc3c(c(-c4ccccc4)nn3-c3ccccc3)c(-c3ccc(O)cc3)c2C#N)cc1,37

# Test system: OVCAR-8
# Test: Antiproliferative activity against human OVCAR-8 cells assessed as growth inhibition at 10 uM measured after 48 hrs by NCI protocol based SRB assay relative to control
# Type: functional
# Conditions: read-out: GI
row,Structure (SMILES),inhibition of growth at 10 µM [%]
1,Cc1ccc(-c2nc3c(c(-c4ccccc4)nn3-c3ccccc3)c(-c3ccc(O)cc3)c2C#N)cc1,31

# Test system: NCI/ADR-RES
# Test: Antiproliferative activity against human NCl/ADR-RES cells assessed as growth inhibition at 10 uM measured after 48 hrs by NCI protocol based SRB assay relative to control
# Type: functional
# Conditions: read-out: GI
row,Structure (SMILES),inhibition of growth at 10 µM [%]
1,Cc1ccc(-c2nc3c(c(-c4ccccc4)nn3-c3ccccc3)c(-c3ccc(O)cc3)c2C#N)cc1,19

# Test system: 786-0
# Test: Antiproliferative activity against human 786-0 cells assessed as growth inhibition at 10 uM measured after 48 hrs by NCI protocol based SRB assay relative to control
# Type: functional
# Conditions: read-out: GI
row,Structure (SMILES),inhibition of growth at 10 µM [%]
1,Cc1ccc(-c2nc3c(c(-c4ccccc4)nn3-c3ccccc3)c(-c3ccc(O)cc3)c2C#N)cc1,82

# Test system: CAKI-1
# Test: Antiproliferative activity against human CAKI-1 cells assessed as growth inhibition at 10 uM measured after 48 hrs by NCI protocol based SRB assay relative to control
# Type: functional
# Conditions: read-out: GI
row,Structure (SMILES),inhibition of growth at 10 µM [%]
1,Cc1ccc(-c2nc3c(c(-c4ccccc4)nn3-c3ccccc3)c(-c3ccc(O)cc3)c2C#N)cc1,50

# Test system: A498
# Test: Antiproliferative activity against human A498 cells assessed as growth inhibition at 10 uM measured after 48 hrs by NCI protocol based SRB assay relative to control
# Type: functional
# Conditions: read-out: GI
row,Structure (SMILES),inhibition of growth at 10 µM [%]
1,Cc1ccc(-c2nc3c(c(-c4ccccc4)nn3-c3ccccc3)c(-c3ccc(O)cc3)c2C#N)cc1,56

# Test system: UO-31
# Test: Antiproliferative activity against human UO-31 cells assessed as growth inhibition at 10 uM measured after 48 hrs by NCI protocol based SRB assay relative to control
# Type: functional
# Conditions: read-out: GI
row,Structure (SMILES),inhibition of growth at 10 µM [%]
1,Cc1ccc(-c2nc3c(c(-c4ccccc4)nn3-c3ccccc3)c(-c3ccc(O)cc3)c2C#N)cc1,61

# Test system: PC-3
# Test: Antiproliferative activity against human PC-3 cells assessed as growth inhibition at 10 uM measured after 48 hrs by NCI protocol based SRB assay relative to control
# Type: functional
# Conditions: read-out: GI
row,Structure (SMILES),inhibition of growth at 10 µM [%]
1,Cc1ccc(-c2nc3c(c(-c4ccccc4)nn3-c3ccccc3)c(-c3ccc(O)cc3)c2C#N)cc1,66

# Test system: DU-145
# Test: Antiproliferative activity against human DU-145 cells assessed as growth inhibition at 10 uM measured after 48 hrs by NCI protocol based SRB assay relative to control
# Type: functional
# Conditions: read-out: GI
row,Structure (SMILES),inhibition of growth at 10 µM [%]
1,Cc1ccc(-c2nc3c(c(-c4ccccc4)nn3-c3ccccc3)c(-c3ccc(O)cc3)c2C#N)cc1,40

# Test system: MDA-MB-231
# Test: Antiproliferative activity against human MDA-MB-231 cells assessed as growth inhibition at 10 uM measured after 48 hrs by NCI protocol based SRB assay relative to control
# Type: functional
# Conditions: read-out: GI
row,Structure (SMILES),inhibition of growth at 10 µM [%]
1,Cc1ccc(-c2nc3c(c(-c4ccccc4)nn3-c3ccccc3)c(-c3ccc(O)cc3)c2C#N)cc1,55

# Test system: MCF7
# Test: Antiproliferative activity against human MCF7 cells assessed as growth inhibition at 10 uM measured after 48 hrs by NCI protocol based SRB assay relative to control
# Type: functional
# Conditions: read-out: GI
row,Structure (SMILES),inhibition of growth at 10 µM [%]
1,Cc1ccc(-c2nc3c(c(-c4ccccc4)nn3-c3ccccc3)c(-c3ccc(O)cc3)c2C#N)cc1,74

# Test system: T47D
# Test: Antiproliferative activity against human T47D cells assessed as growth inhibition at 10 uM measured after 48 hrs by NCI protocol based SRB assay relative to control
# Type: functional
# Conditions: read-out: GI
row,Structure (SMILES),inhibition of growth at 10 µM [%]
1,Cc1ccc(-c2nc3c(c(-c4ccccc4)nn3-c3ccccc3)c(-c3ccc(O)cc3)c2C#N)cc1,39

# Test system: Hs-578T
# Test: Antiproliferative activity against human Hs-578T cells assessed as growth inhibition at 10 uM measured after 48 hrs by NCI protocol based SRB assay relative to control
# Type: functional
# Conditions: read-out: GI
row,Structure (SMILES),inhibition of growth at 10 µM [%]
1,Cc1ccc(-c2nc3c(c(-c4ccccc4)nn3-c3ccccc3)c(-c3ccc(O)cc3)c2C#N)cc1,77

# Test system: MV4-11
# Test: Antiproliferative activity against human MV4-11 cells assessed as reduction in cell viability incubated for 72 hrs by resazurin dye based assay
# Type: functional
# Conditions: MV4-11, 72 h
row,Structure (SMILES),IC50 [µM]
1,Cc1ccc(-c2nc3c(c(-c4ccccc4)nn3-c3ccccc3)c(-c3ccc(O)cc3)c2C#N)cc1,3.3
